From US5001064A, “Phosphatidylinositol 4-kinase” (Washington University, priority 1988, dated 1991)
Where “and” joins values, the source holds several entries; their conditions need not be identical. Equal entries are not always repeated. Entries after “also recorded” stand apart in the source; their conditions may differ. Where two headings read alike, the source gives them in different places. Values belong to the molecule of their own block, whether it stands above or below them.

Legend:
PtdIns 4-kinase [1] = target: T1, PtdIns 4-kinase (Bos taurus, UniProt A6QLN5); assay: PtdIns 4-kinase activity assay: kinetic parameters, specific activity, pH optimum; type: biochemical, bovine; conditions: for Km: assuming a molecular weight of 835.2 for PtdIns, read-out: apparent Km for PtdIns
T1 construct: It constitutes the major PtdIns 4-kinase activity of bovine uteri; from tissue; host or cells: bovine uterus (acetone powder, purified over ammonium sulfate, Mono Q, S-Sepharose, Mono Q, Mono P and hydroxylapatite)
T1 sequence (A6QLN5 1-479): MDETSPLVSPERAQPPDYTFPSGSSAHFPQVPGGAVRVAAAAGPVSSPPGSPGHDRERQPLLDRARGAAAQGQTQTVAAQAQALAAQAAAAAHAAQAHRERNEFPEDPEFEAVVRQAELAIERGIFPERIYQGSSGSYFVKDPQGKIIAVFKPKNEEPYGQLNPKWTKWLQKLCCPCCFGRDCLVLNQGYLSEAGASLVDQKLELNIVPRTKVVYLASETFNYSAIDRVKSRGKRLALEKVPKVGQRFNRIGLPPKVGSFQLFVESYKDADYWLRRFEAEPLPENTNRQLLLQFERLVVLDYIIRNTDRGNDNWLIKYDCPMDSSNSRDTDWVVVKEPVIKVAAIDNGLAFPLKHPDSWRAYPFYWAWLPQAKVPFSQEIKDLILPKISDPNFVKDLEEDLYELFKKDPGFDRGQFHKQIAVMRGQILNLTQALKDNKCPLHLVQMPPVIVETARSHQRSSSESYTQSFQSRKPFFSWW
Method: (§1) PtdIns 4-kinase activity was assayed in 60 μl at 30° C. in 20 mM BisTris-HCl (pH 7.0), 10 mM MgCl2, 1.0% Triton X-100, 0.25 mg/ml phosphatidylinositol, and 150 μM ATP (1.25 μCi[-^32 P]ATP), unless otherwise noted. The reaction was terminated by the addition of 12 μl of cold HCl, 120 μl of cold methanol, 150 μl of chloroform, and 40 μl of H2 O. The extracted samples were centrifuged at 12,000 × g for 1 min. and the aqueous layer removed and discarded. When needed, the organic phase was washed with 40 μl of cold methanol and 40 μl of cold 1.0 N HCl, centrifuged at 12,000 × g, and the aqueous layer was removed. The organic phase was then dried under vacuum in a Savant speed-vac, resuspended in 40 μl of chloroform/methanol (2:1), and chromatographed on potassium oxalate-impregnated Silica Gel 60 thin layer chromatography plates (TLC). The solvent system used consisted of chloroform/methanol/ammonium hydroxide/water (51:39.6:3:8.4). For two-dimensional thin layer chromatography, the preceding solvent system was used for the first dimension, and chloroform/methanol/acetic acid/water (50:39:1:10) was used for the second dimension. Standards were visualized by exposing the TLC plate to iodine vapor. The reaction product, phosphatidylinositol 4-phosphate, was visualized by autoradiography, and the corresponding area of the TLC plate was scraped and quantitated by Cherenkov counting. This assay was linear with respect to both protein concentration and time. For tests utilizing [^3 H]PtdIns, the corresponding areas of the TLC plates were scraped and the silica powder was suspended in a gel of Aquasol/H2 O (4:1) before counting. All assays (except column fractions) were done in duplicate or triplicate.
The purified PtdIns 4-kinase was used to determine the kinetic parameters of this enzyme for ATP and PtdIns. Optimal enzymatic activity was found at concentrations of ATP above 100 μM. […] In order to avoid potential effects on enzymatic activity due to changes in the Triton X-100/PtdIns micelles used as substrate, a constant molar ratio of Triton X-100 to PtdIns was used, and the concentration of Triton X-100 was maintained above its critical micellar concentration. […] The different Vmax values may be explained by the fact that the ATP substrate saturation curve was performed at a pH of 7.4 rather than 7.0.
In order to optimize the assay of this enzyme, the pH optimum for Ptdlns 4-kinase was determined. This enzyme was optimally active in the pH range of 6.0-7.0 (FIG. 4). Above a pH of 7.0 and below a pH of 6.0 the activity of this enzyme decreased sharply.

PtdIns 4-kinase [2] = target: T1, PtdIns 4-kinase; assay: Specificity of PtdIns 4-kinase for a nucleotide phosphoryl donor ([3H]PtdIns as substrate); type: biochemical, bovine
Method: as §1, with “This assay was linear with respect to both protein concentration and time.” left out

PtdIns 4-kinase [3] = target: T1, PtdIns 4-kinase; assay: Influence of divalent cations (Mg2+, Ca2+) on PtdIns 4-kinase activity; type: biochemical, bovine
Method: as §1, with “The” for “PtdIns 4-kinase activity was assayed in 60 μl at 30° C. in 20 mM BisTris-HCl (pH 7.0), 10 mM MgCl2, 1.0% Triton X-100, 0.25 mg/ml phosphatidylinositol, and 150 μM ATP (1.25 μCi[-^32 P]ATP), unless otherwise noted. The”, “The solvent system used consisted of chloroform/methanol/ammonium hydroxide/water (51:39.6:3:8.4).” left out, “This assay was linear with respect to both protein concentration and time.” left out

[4] = tested on: PtdIns 4-kinase/PtdIns-4-P 5-kinase purified from bovine brain myelin; conditions: Saltiel et al., Biochem. J. 241, 759-763 (1987); cited from earlier work
[5] = nonlinear regression, Hill equation

Molecule: Nc1ncnc2c1ncn2[C@@H]1O[C@H](COP(=O)(O)OP(=O)(O)OP(=O)(O)O)[C@@H](O)[C@H]1O [ATP]
ATP concentration for optimal enzymatic activity (PtdIns 4-kinase [1]; FIG. 3A): above 100 μM
Vmax, ATP concentration varied (PtdIns 4-kinase [1]; pH 7.4): 2.2 µmol/mg/min
utilization as phosphoryl donor (words) (PtdIns 4-kinase [2]; [3H]PtdIns as substrate): utilized; also recorded: will utilize
activity at 150 µM (PtdIns 4-kinase [2]; read-out: Relative activity with nucleotide donor): 100%

Molecule: [Ca+2] [Ca^2+]
IC50 (PtdIns 4-kinase [3]; 100 μM ATP, 100 μM EGTA, FIG. 6, read-out: free Ca2+ concentration giving 50% inhibition): ~300 µM

Hill coefficient of Mg2+ dependence (PtdIns 4-kinase [3]; [5]): 1.9
Ks of Mg2+ dependence (PtdIns 4-kinase [3]; [5]): 0.36
Molecule: [Mg+2] [Mg^2+]

PtdIns concentration for saturation of enzyme activity (PtdIns 4-kinase [1]; FIG. 3B): above 0.2 mg/ml
Km (PtdIns 4-kinase [1]; listed as phosphatidylinositol (PtdIns)): ~26 µM
Km (PtdIns 4-kinase [1]): 26 µM and ~26 µM
Vmax, PtdIns concentration varied (PtdIns 4-kinase [1]; pH 7.0): 3.3 µmol/mg/min
apparent Km for PtdIns (PtdIns 4-kinase [1]; purified enzyme, pH 7.0 (Tris-HCl), constant Triton X-100/PtdIns ratio): 22 µg/mL
Molecule: phosphatidylinositol [PtdIns]
Km [4]: 400 µM
